# Laboratory results: US9018206B2, “Carboxamide compounds and their use as calpain inhibitors” (AbbVie Deutschland GmbH & Co. KG, priority 2009, dated 2015)
# Assays:
# [1] = target: T1, cathepsin L isolated from human liver (Homo sapiens, UniProt P07711); test: Cathepsin L enzyme inhibition in vitro (kinetic fluorescence assay); assay type: biochemical; conditions: Ki(cathepsin L)/Ki(calpain) ratio
# T1 construct: cathepsin L—isolated from human liver; purchased Calbiochem 219402; host or cells: human liver (tissue-derived)
# In short: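 Inhibition of cathepsin L isolated from human liver was measured by kinetic fluorescence (excitation 390 nm, emission 460 nm) using 1 nM enzyme and 2 μM Z-Phe-Arg-AMC substrate (Km 2 μM) in 50 mM MES, 2 mM EDTA, 0.05% Brij 35, 2.5 mM L-cysteine, pH 6.0, at room temperature. Apparent Ki values came from IC50 values via the Cheng-Prussoff relation, averaged over 2 to 4 dose-effect plots.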
# [2] = target: T2, calpain-I isolated from human erythrocytes (Homo sapiens, UniProt P07384); test: Calpain I enzyme inhibition in vitro (kinetic fluorescence assay); assay type: biochemical; conditions: apparent Ki from IC50 (Cheng-Prussoff); 20 nM calpain-I, 100 μM Suc-Leu-Tyr-AMC, pH 7.3, room temperature
# T2 construct: calpain-I—isolated from human erythrocytes; purchased Calbiochem 208713; host or cells: human erythrocytes (tissue-derived)
# T2 sequence (P07384 1-714): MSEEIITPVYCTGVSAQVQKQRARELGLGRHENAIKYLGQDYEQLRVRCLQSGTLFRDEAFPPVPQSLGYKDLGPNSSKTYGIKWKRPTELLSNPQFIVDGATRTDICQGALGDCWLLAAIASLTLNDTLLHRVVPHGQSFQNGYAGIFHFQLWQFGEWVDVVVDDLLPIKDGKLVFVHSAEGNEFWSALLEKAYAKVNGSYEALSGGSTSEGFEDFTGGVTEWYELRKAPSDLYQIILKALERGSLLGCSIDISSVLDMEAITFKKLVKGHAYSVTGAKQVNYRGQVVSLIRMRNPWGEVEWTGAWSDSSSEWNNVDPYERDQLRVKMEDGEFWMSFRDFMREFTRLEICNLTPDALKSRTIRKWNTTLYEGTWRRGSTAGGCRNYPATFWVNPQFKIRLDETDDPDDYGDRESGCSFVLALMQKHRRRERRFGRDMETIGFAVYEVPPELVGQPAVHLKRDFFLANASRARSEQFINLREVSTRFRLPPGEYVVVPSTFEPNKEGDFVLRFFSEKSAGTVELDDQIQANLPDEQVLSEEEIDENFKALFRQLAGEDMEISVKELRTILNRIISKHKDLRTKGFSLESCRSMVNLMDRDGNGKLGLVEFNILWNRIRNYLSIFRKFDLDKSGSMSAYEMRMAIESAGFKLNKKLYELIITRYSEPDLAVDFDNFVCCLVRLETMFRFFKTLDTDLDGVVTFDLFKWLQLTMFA
# T2 sequence (P04632 1-268 partner): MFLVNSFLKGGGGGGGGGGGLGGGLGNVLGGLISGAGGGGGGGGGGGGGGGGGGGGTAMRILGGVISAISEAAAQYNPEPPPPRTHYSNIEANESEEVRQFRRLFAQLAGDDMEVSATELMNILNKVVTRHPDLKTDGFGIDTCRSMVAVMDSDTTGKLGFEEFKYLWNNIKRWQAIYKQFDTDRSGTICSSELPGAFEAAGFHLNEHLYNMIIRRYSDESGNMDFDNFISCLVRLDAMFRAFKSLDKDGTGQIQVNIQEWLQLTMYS
# In short: (§1)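 Kinetic AMC fluorescence (ex 390/em 460 nm), room temperature. Calpain-I 20 nM, 100 μM Suc-Leu-Tyr-AMC, imidazole/CaCl2 pH 7.3; cathepsins B 0.25 nM/100 μM Z-Phe-Arg-AMC, K 3 nM/10 μM Z-Gly-Pro-Arg-AMC, S 0.5 nM/20 μM Z-Val-Val-Arg-AMC, each MES/EDTA/cysteine pH 6.0. Ki from IC50 via Cheng-Prusoff, averaging 2–4 curves.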
# [3] = Assay for determining cytosolic clearance, human liver cytosol; assay type: in vitro ADME; conditions: 0.5 μM compound, 1 mg/ml human liver cytosol, 37° C., pH 7.5
# Protocol: (§2) For comparison purposes data measured with human liver cytosol were contrasted with those obtained with cynomolgus monkey liver cytosol.
# (§3) 0.5 μM of a compound to be tested was incubated with 1 mg/ml of human liver cytosol as well as monkey liver cytosol at 37° C. in 0.5 M of phosphate buffer at pH 7.5 while shaking (commercial sources: female cynomolgus liver cytosol from Tebu bio, human liver cytosol from BDgentest).
# (§4) In each case aliquots of 65 μl were taken after 0, 5, 10 and 15 min and transferred into wells of a wellplate which were immediately filled with 130 μl of ethanol to stop the reaction. The samples were kept frozen until analysis on a LC/MS/MS system (Applied Biosystems SCIEX 4000).
# (§5) Read out parameters were the loss of parent compounds, from which the half life periods (T1/2) were calculated from.
# (§6) To assess the stability of the compounds tested the clearance ranges were adjusted to the hepatic plasma flow of the different species according to the following scheme:
# (§7) stable=from 0 to about ⅓ of the hepatic plasma flow;
# (§8) moderately stable=from about ⅓ to about ⅔ of the hepatic plasma flow;
# (§9) instable=more than ⅔ of the hepatic plasma flow.
# (§10) Based on this adjustment the following qualifiers were assigned to evaluate the cytosolic stabilities of the compounds tested: […]
# [4] = Assay for determining cytosolic clearance, cynomolgus monkey liver cytosol; assay type: in vitro ADME; conditions: 0.5 μM compound, 1 mg/ml cynomolgus monkey liver cytosol, 37° C., pH 7.5
# Protocol: as §2, §3, §4, §5, §6, §7, §8, §9, §10
# [5] = target: T3, cathepsin K activated from recombinant human procathepsin K (Homo sapiens, UniProt P43235); test: Cathepsin K enzyme inhibition in vitro (kinetic fluorescence assay); assay type: biochemical; conditions: Ki(cathepsin K)/Ki(calpain) ratio
# T3 construct: purchased Calbiochem 342001; host or cells: E. coli
# T3 sequence (P43235 115-329): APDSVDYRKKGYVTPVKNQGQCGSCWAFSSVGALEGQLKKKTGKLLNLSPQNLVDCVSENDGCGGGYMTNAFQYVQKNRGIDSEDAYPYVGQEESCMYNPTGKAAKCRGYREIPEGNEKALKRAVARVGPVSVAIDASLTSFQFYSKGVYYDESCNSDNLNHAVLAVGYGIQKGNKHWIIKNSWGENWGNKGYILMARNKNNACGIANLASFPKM
# In short: as §1
# [6] = target: T4, recombinant human cathepsin S (Homo sapiens, UniProt P25774); test: Cathepsin S enzyme inhibition in vitro (kinetic fluorescence assay); assay type: biochemical; conditions: Ki(cathepsin S)/Ki(calpain) ratio
# T4 construct: purchased Calbiochem 219343; host or cells: E. coli
# In short: as §1
# [7] = target: T5, cathepsin B isolated from human liver (Homo sapiens, UniProt P07858); test: Cathepsin B enzyme inhibition in vitro (kinetic fluorescence assay); assay type: biochemical; conditions: Ki(cathepsin B)/Ki(calpain) ratio
# T5 construct: cathepsin B—isolated from human liver; purchased Calbiochem 219362; host or cells: human liver (tissue-derived)
# In short: as §1
# T4 sequence (P25774 115-331): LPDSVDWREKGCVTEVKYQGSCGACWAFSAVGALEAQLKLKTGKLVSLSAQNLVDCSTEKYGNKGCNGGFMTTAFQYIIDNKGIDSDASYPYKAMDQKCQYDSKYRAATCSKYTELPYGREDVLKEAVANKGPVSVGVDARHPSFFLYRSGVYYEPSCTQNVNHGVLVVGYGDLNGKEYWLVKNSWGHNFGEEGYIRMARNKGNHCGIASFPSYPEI
# T1 sequence (P07711 114-333): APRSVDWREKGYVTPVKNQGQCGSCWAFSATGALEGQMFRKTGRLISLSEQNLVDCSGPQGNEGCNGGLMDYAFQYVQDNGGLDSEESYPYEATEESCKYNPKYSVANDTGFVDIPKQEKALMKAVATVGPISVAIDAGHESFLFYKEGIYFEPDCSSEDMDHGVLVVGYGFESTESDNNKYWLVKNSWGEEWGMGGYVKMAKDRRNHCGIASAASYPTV
Sel cat. L [1],Ki [2],human cytCL [3],cyno cytCL [4],Sel cat. S [6],SMILES,Sel cat. K [5],Sel cat. B [7]
++ (10<Ki(cathepsin B)/Ki(calpain)≦30),–,++ (0-14 μl/min/mg),++ (0-18 μl/min/mg),–,"CCNC(=O)C(=O)C(Cc1ccccc1)NC(=O)[C@H]1CCC(=O)N1Cc1c(OC)cccc1C(F)(F)F (mixture of isomers) [Example 42, (2R)—N-(4-(Ethylamino)-3,4-dioxo-1-phenylbutan-2-yl)-1-(2-methoxy-6-(trifluoromethyl)benzyl)-5-oxopyrrolidine-2-carboxamide]",++ (10<Ki(cathepsin B)/Ki(calpain)≦30),++ (10<Ki(cathepsin B)/Ki(calpain)≦30)
++ (10<Ki(cathepsin B)/Ki(calpain)≦30),100 to 600 nM,–,–,++ (30<Ki(cathepsin B)/Ki(calpain)≦100),"CCNC(=O)C(=O)C(Cc1ccccc1)NC(=O)[C@H]1CCC(=O)N1Cc1c(Cl)cccc1Cl (mixture of isomers) [Example 62, (2R)-1-(2,6-Dichlorobenzyl)-N-(4-(ethylamino)-3,4-dioxo-1-phenylbutan-2-yl)-5-oxopyrrolidine-2-carboxamide]",++ (10<Ki(cathepsin B)/Ki(calpain)≦30),++ (10<Ki(cathepsin B)/Ki(calpain)≦30)

# The next lines start with the molecule.
SMILES,Sel cat. L [1],Ki [2],human cytCL [3],cyno cytCL [4],Sel cat. S [6],Sel cat. K [5],Sel cat. B [7]
"O=C(NCc1ccccn1)C(=O)C(Cc1ccccc1)NC(=O)[C@H]1CCC(=O)N1Cc1ccccc1 (stereo partly drawn) [Example 20, (2R)-1-Benzyl-N-{3,4-dioxo-1-phenyl-4-[(pyridin-2-ylmethyl)amino]butan-2-yl}-5-oxopyrrolidine-2-carboxamide]",++ (10<Ki(cathepsin B)/Ki(calpain)≦30),50 to 100 nM,++ (0-14 μl/min/mg),++ (0-18 μl/min/mg),+++ (Ki(cathepsin S)/Ki(calpain) ratio of >100),+++ (Ki(cathepsin K)/Ki(calpain) ratio of >30),+++ (Ki(cathepsin B)/Ki(calpain) ratio of >30)
"O=C(NC1CC1)C(=O)C(Cc1ccccc1)NC(=O)[C@H]1CCC(=O)N1Cc1ccccc1 (mixture of isomers) [Example 27, (2R)-1-Benzyl-N-(4-(cyclopropylamino)-3,4-dioxo-1-phenylbutan-2-yl)-5-oxopyrrolidine-2-carboxamide]",+++ (Ki(cathepsin L)/Ki(calpain) ratio of >30),100 to 600 nM,++ (0-14 μl/min/mg),++ (0-18 μl/min/mg),++ (30<Ki(cathepsin B)/Ki(calpain)≦100),+++ (Ki(cathepsin K)/Ki(calpain) ratio of >30),+++ (Ki(cathepsin B)/Ki(calpain) ratio of >30)
"O=C(NCc1ccc(C(F)(F)F)cc1)C(=O)C(Cc1ccccc1)NC(=O)[C@H]1CCC(=O)N1Cc1ccccc1 (mixture of isomers) [Example 68, (2R)-1-Benzyl-N-(3,4-dioxo-1-phenyl-4-(4-(trifluoromethyl)benzylamino)butan-2-yl)-5-oxopyrrolidine-2-carboxamide]",++ (10<Ki(cathepsin B)/Ki(calpain)≦30),100 to 600 nM,–,++ (0-18 μl/min/mg),+++ (Ki(cathepsin S)/Ki(calpain) ratio of >100),+++ (Ki(cathepsin K)/Ki(calpain) ratio of >30),+++ (Ki(cathepsin B)/Ki(calpain) ratio of >30)
"NC(=O)C(=O)C(Cc1ccccc1)NC(=O)[C@H]1CCC(=O)N1Cc1ccc(F)cc1 (stereo partly drawn) [Example 5, (2R)—N-(4-Amino-3,4-dioxo-1-phenylbutan-2-yl)-1-(4-fluorobenzyl)-5-oxopyrrolidine-2-carboxamide]",++ (10<Ki(cathepsin B)/Ki(calpain)≦30),50 to 100 nM,–,–,++ (30<Ki(cathepsin B)/Ki(calpain)≦100),++ (10<Ki(cathepsin B)/Ki(calpain)≦30),++ (10<Ki(cathepsin B)/Ki(calpain)≦30)
